Where only a bound is given, the exact number is not on record here.

For one assay, the system named is primary cultured hepatocytes. The assay is described as follows: Cell-protecting effect against cold shock in primary cultured hepatocytes (WST-1). The format is cell-based. Conditions: Rattus norvegicus, Hepatocyte, 37° C. for 1 hour, 4° C. for 22 hours, then 37° C., cell viability by WST-1. The method, then: In order to reproduce a condition for preservation prior to organ transplantation, primary cultured hepatocytes were prepared according to Experimental Example 1 and treated with the compounds of the working examples at 9 different concentrations that had been prepared by 3-fold serial dilution method using a starting concentration of 25 μM. The mixture was cultured at 37° C. for 1 hour, stored at 4° C. for 22 hours, and then transferred into an incubator at 37° C. and cultured therein. Cell viability was measured by the optical density at 440 nm according to the WST-1 method (MK-400, Takeda), and IC50 (unit: μM) was obtained using prism software (see Table 1).
On the technique in general: Tetrazolium dyes change colour on reduction, which living cells bring about.
As for `CCOc1cc(NC2CCCC2)c2[nH]c(C3=N[C@H](CC(=O)O)CS3)cc2c1` [Example 17, [(R)-2-(7-cyclopentylamino-5-ethoxy-1H-indol-2-yl)-4,5-dihydro-thiazol-4-yl]-acetic acid], the IC50 – broadly, the concentration that inhibits the measured activity by half – was under 0.12 µM.

Turning to `OC[C@@H]1CSC(c2cc3cccc(NC4CCOCC4)c3[nH]2)=N1` [Example 7, {(R)-2-[7-(tetrahydro-pyran-4-ylamino)-1H-indol-2-yl]-4,5-dihydro-thiazol-4-yl}-methanol], the IC50 was under 0.4 µM.

The compound `CCOC(=O)CC[C@@H]1CSC(c2cc3cc(Cl)cc(NC4CCCC4)c3[nH]2)=N1` [Example 22, 3-[(R)-2-(5-chloro-7-cyclopentylamino-1H-indol-2-yl)-4,5-dihydro-thiazol-4-yl]-propionic acid ethyl ester] yielded an IC50 of 0.97 µM.

Compound `OCCc1cc(NC2CCCC2)c2[nH]c(-c3ccccc3)cc2c1` [Example 76, 2-(7-cyclopenthylamino-2-phenyl-1H-indol-5-yl)-ethanol] yielded a concentration for half-maximal inhibition (IC50) of under 0.12 µM.

For `Cc1cc(NC2CCC(C(=O)NCCN3CCOCC3)CC2)c2[nH]c(-c3ccccc3)cc2c1` (stereo not shown) [Example 56, 4-(5-methyl-2-phenyl-1H-indol-7-ylamino)-cyclohexane carboxylic acid (2-morpholin-4-yl-ethyl)-amide], the IC50 came out at 0.2 µM.

As to `C[Si](C)(C)c1[nH]c2c(NC3CCOCC3)cc(CN3CCS(=O)(=O)CC3)cc2c1-c1ccccc1` [Example 146, [5-(1,1-dioxo-thiomorpholin-4-ylmethyl)-3-phenyl-2-trimethylsilanyl-1H-indol-7-yl]-(tetrahydropyran-4-yl)-amine], half-maximal inhibition (IC50) was put at 0.603 µM.

In the case of `CC(=O)N1CCC(Nc2cc(C)cc3cc(-c4ccccc4)[nH]c23)CC1` [Example 51, 1-[4-(5-methyl-2-phenyl-1H-indol-7-ylamino)-piperidin-1-yl]-ethanone], the midpoint of inhibition, the IC50, lay at 0.26 µM. Against the preceding compound, the IC50 is about 2.3-fold lower.

Take `Cc1cc(NC2CCC(=O)CC2)c2[nH]c(-c3ccccn3)cc2c1` [Example 38, 4-(5-methyl-2-pyridin-2-yl-1H-indol-7-ylamino)-cyclohexanone]: the IC50 is under 0.12 µM.

Compound `O=C(O)CC1CSC(c2cc3cccc(NC4CCCC4)c3[nH]2)=N1` (stereo not shown) [Example 83] displayed an IC50 of 0.729 µM. In other words, the sub-micromolar range.

Turning to `O=C(O)Cc1cc(NC2CCCC2)c2[nH]c(-c3ccccc3)cc2c1` [Example 75, (7-cyclopenthylamino-2-phenyl-1H-indol-5-yl)-acetic acid], the IC50 was under 0.12 µM.

Compound `Cc1cc(NCC2CCOCC2)c2[nH]c(-c3ccccc3)cc2c1` [Example 58, (5-methyl-2-phenyl-1H-indol-7-yl)-(tetrahydro-pyran-4-ylmethyl)-amine] gave an IC50 of under 0.12 µM.

`Cc1cc(NC2CCCC2)c2[nH]c(-c3nc(CO)cs3)cc2c1` [Example 30, [2-(7-cyclopentylamino-5-methyl-1H-indol-2-yl)-thiazole-4-yl]-methanol] registered an IC50 of under 0.12 µM.

For `Cc1cc(NC2CCCC2)c2[nH]c(C3CCCCC3)cc2c1` [Example 47, (2-cyclohexyl-5-methyl-1H-indol-7-yl)-cyclopentyl-amine], the IC50 was under 0.12 µM.

With `O=C(O)C[C@@H]1CSC(c2cc3cc(Br)cc(NC4CCCC4)c3[nH]2)=N1` [Example 16, [(R)-2-(5-bromo-7-cyclopentylamino-1H-indol-2-yl)-4,5-dihydro-thiazol-4-yl]-acetic acid], the IC50 was determined as 3.56 µM. In other words, the single-digit micromolar range.

The compound `OC[C@@H]1CSC(c2cc3cccc(NC4CCCC4)c3[nH]2)=N1` [Example 5, [(R)-2-(7-cyclopentylamino-1H-indol-2-yl)-4,5-dihydro-1,3-thiazol-4-yl]-methanol] had an IC50 of under 0.12 µM.

On to `O=S1(=O)CCN(Cc2cc(NCC3CCOCC3)c3[nH]c(-c4ccccc4)c(Br)c3c2)CC1` [Example 142, [3-bromo-5-(1,1-dioxo-thiomorpholin-4-ylmethyl)-2-phenyl-1H-indol-7-yl]-(tetrahydro-pyran-4-ylmethyl)-amine], for which the IC50 was 0.3 µM.

In turn, `Cc1cc(NC2CCCC2)c2[nH]c(-c3nnco3)cc2c1` [Example 32, cyclopentyl-(5-methyl-2-[1,3,4]oxadiazol-2-yl-1H-indol-7-yl)-amine] had an IC50 of under 0.12 µM.

Compound `Cc1cc(NCC2CCCC2)c2[nH]c(-c3ccccn3)cc2c1` [Example 40, cyclopentylmethyl-(5-methyl-2-pyridin-2-yl-1H-indol-7-yl)-amine] displayed an IC50 of under 0.12 µM.

The compound `Cc1cc(NC2CCCC2)c2[nH]c(-c3nc(C(=O)O)cs3)cc2c1` [Example 29, 2-(7-cyclopentylamino-5-methyl-1H-indol-2-yl)-thiazole-4-carboxylic acid] showed an IC50 of 1.46 µM.

Regarding `c1ccc(-c2cc3cccc(NC4CCCC4)c3[nH]2)nc1` [Example 24, cyclopentyl-(2-pyridin-2-yl-1H-indol-7-yl)amine], the IC50 is under 0.12 µM.

The subject of a further assay is human embryonic lung cell line (LB-HEL). The assay is described as follows: Cell-protecting effect against cold shock in LB-HEL cells (WST-1). The format is cell-based. Conditions: cold shock at 4° C. for 24 hours, then 37° C., cell viability by WST-1. The method, then: The same results as above were also obtained in other types of cells such as human embryonic lung cell line (LB-HEL) as well as hepatocytes (see FIG. 2 and Table 2). More specifically, LB-HEL cells were plated at 1.5×10^6 cells/well using DMEM medium (Gibco BRL) and treated with DMSO, nec-1, IM-54 or the compounds of Examples 126, 127, 137 and 138 at indicated concentrations. After storage at 4° C. for 24 hours, the mixture was transferred into an incubator at 37° C. and cultured therein. In order to verify recovery capacity at 37° C., cell viability after 24 hours post-transfer was measured by the optical density at 440 nm according to the WST-1 method (MK-400, Takeda) and compared with cell viability prior to cold shock (FIG. 2).
For the compound `O=C1CN(Cc2c(-c3ccccc3)[nH]c3c(NC4CCCC4)cc(Cl)cc23)CCN1` [Example 147, 4-(5-chloro-7-cyclopentylamino-2-phenyl-1H-indol-3-ylmethyl)-piperazin-2-one], the IC50 amounted to 1.08 µM.

Take `CC(=O)N1CCC(Nc2cccc3cc(C4=NC(CC(=O)O)CS4)[nH]c23)C1` (stereo not shown) [Example 84]: the IC50 was found to be 7.11 µM. This IC50 lies about 6.6-fold higher than the previous one.

For `C[Si](C)(C)c1[nH]c2c(NC3CCOCC3)cc(CN3CCS(=O)(=O)CC3)cc2c1-c1ccccc1` [Example 146, [5-(1,1-dioxo-thiomorpholin-4-ylmethyl)-3-phenyl-2-trimethylsilanyl-1H-indol-7-yl]-(tetrahydropyran-4-yl)-amine], the IC50 amounted to 0.823 µM.

The compound `O=C(O)CC1CSC(c2cc3cccc(NC4CCCC4)c3[nH]2)=N1` (stereo not shown) [Example 83] returned a half-inhibitory concentration (IC50) of 3.66 µM. Compared with the last compound, the IC50 is about 4.4-fold higher.

For `Clc1cc(NC2CCOCC2)c2[nH]cc(-c3ccccc3)c2c1` [Example 143, (5-chloro-3-phenyl-1H-indol-7-yl)-(tetrahydro-pyran-4-yl)-amine], the IC50 is under 0.1 µM.

In the case of `Brc1c(-c2ccccc2)[nH]c2c(NC3CCOCC3)cc(CN3CCOCC3)cc12` [Example 140, [3-bromo-(5-morpholin-4-yl)methyl-2-phenyl-1H-indol-7-yl]-(tetrahydropyran-4-yl)-amine], the IC50 is under 0.1 µM.

For `Clc1cc(NC2CCCC2)c2[nH]cc(-c3ccccc3)c2c1` [Example 144, (5-chloro-3-phenyl-1H-indol-7-yl)-(cyclopentyl)-amine], the IC50 was under 0.1 µM.

Take `Cc1cc(NC2CCC(F)(F)CC2)c2[nH]c(C3=NC(CC(=O)O)CS3)cc2c1` (stereo not shown) [Example 79]: 3.3 µM corresponded to half-maximal inhibition (IC50). That is a single-digit micromolar value.

For the compound `O=C1CN(Cc2c(-c3ccccc3)[nH]c3c(NC4CCOCC4)cc(Cl)cc23)CCN1` [Example 148, 4-[5-chloro-2-phenyl-7-(tetrahydropyran-4-ylamino)-1H-indol-3-ylmethyl]-piperazin-2-one], 2.35 µM corresponded to half-maximal inhibition (IC50).

Consider `COc1ccc(-c2n[nH]c3c(NC4CCCC4)cccc23)cc1` [Example 150, cyclopentyl-[3-(4-methoxyphenyl)-1H-indazol-7-yl]-amine], for which the 50% inhibitory concentration (IC50) was determined as 0.21 µM.

`O=C1CN(Cc2c(-c3ccccc3)[nH]c3c(NCC4CCOCC4)cc(Cl)cc23)CCN1` [Example 149, 4-{5-chloro-2-phenyl-7-[(tetrahydropyran-4-ylmethyl)-amino]-1H-indol-3-ylmethyl}-piperazin-2-one] displayed a half-inhibitory concentration (IC50) of 1.45 µM.

`COc1ccc(-c2n[nH]c3c(NC4CCOCC4)cccc23)cc1` [Example 151, [3-(4-methoxyphenyl)-1H-indazol-7-yl]-(tetrahydropyran-4-yl)-amine]: the IC50 came out at 0.384 µM. This IC50 lies about 3.8-fold lower than the previous one.

In the case of `O=S1(=O)CCN(Cc2cc(NCC3CCOCC3)c3[nH]c(-c4ccccc4)c(Br)c3c2)CC1` [Example 142, [3-bromo-5-(1,1-dioxo-thiomorpholin-4-ylmethyl)-2-phenyl-1H-indol-7-yl]-(tetrahydro-pyran-4-ylmethyl)-amine], the IC50 was under 0.1 µM.

For `O=S1(=O)CCN(Cc2cc(NC3CCCC3)c3[nH]c(-c4ccccc4)c(Br)c3c2)CC1` [Example 141, [3-bromo-5-(1,1-dioxo-thiomorpholin-4-yl methyl)-2-phenyl-1H-indol-7-yl]-cyclopentyl-amine], the IC50 is under 0.1 µM.

Take `Clc1cc(NCC2CCOCC2)c2[nH]cc(-c3ccccc3)c2c1` [Example 145, (5-chloro-3-phenyl-1H-indol-7-yl)-(tetrahydropyran-4-ylmethyl)-amine]: the IC50 was under 0.1 µM.

Compound `COc1ccc(-c2n[nH]c3c(NCC4CCOCC4)cccc23)cc1` [Example 152, [3-(4-methoxyphenyl)-1H-indazol-7-yl]-(tetrahydropyran-4-ylmethyl)-amine] returned an IC50 of 0.59 µM. In other words, the sub-micromolar range.

Regarding `O=S1(=O)CCN(Cc2cc(NC3CCOCC3)c3[nH]c(-c4ccccc4)c(Br)c3c2)CC1` [Example 139], the IC50 is under 0.1 µM.

These data come from patent US8349885B2, “Indole and indazole derivatives having a cell-, tissue- and organ-preserving effect” (LG Life Sciences Ltd., priority 2008, dated 2013).
